{"source": "patent US20120190615A1", "about": "“METHODS AND COMPOSITIONS FOR INDUCING WEIGHT LOSS” (Sanford-Burnham Medical Research Institute, priority 2011, published 2012)", "key": {"C3H10T1/2 cells": {"system": "C3H10T1/2 cells", "assay": "Oxygen consumption / uncoupled respiration of cultured mesenchymal stem cells", "type": "cell-based, mouse", "excerpt": "To determine whether the increased respiration was uncoupled from ATP synthesis, oligomycin-insensitive respiration was first assayed as a measure of uncoupled respiration. Oligomycin inhibits F1 ATP synthetase to suppress only oxidative phosphorylation-associated respiration."}, "[1]": {"system": "primary brown preadipocytes", "assay": "Differentiation of primary brown preadipocytes (Oil Red O)", "type": "cell-based, mice", "excerpt": "To assess differentiation of primary brown adipocytes, iBAT preadipocytes were isolated from 1-day-old mice and then differentiated in the presence of OX. Differentiation was confirmed by Oil Red O staining which visualizes lipid accumulation (FIG. 7). […] Taken together. OX activates a full program of brown fat adipogenesis by suppressing adipogenic inhibitors, including BAT regulators, elevating mitochondrial biogenesis and oxygen consumption, and inducing uncoupled respiration.\nTo investigate whether lack of OXR1 impaired BAT differentiation potential, primary brown preadipocytes from OXR1 knockout mice were isolated and differentiated. Generation of wild-type primary brown preadipocyte cell lines was derived from newborn wild-type mice as described previously by Klein et al. (Bioessays, 24: 382-388, 2002), which is hereby incorporated by reference in its entirety. Brown preadipocytes isolated from C57BL-6 mice served as positive control. All cell lines were maintained in Dulbecco's modified […] medium (DMEM), high glucose, supplemented with 10% FBS at 37° C. in a 5% CO2 environment. To induce adipogenesis, the cells were treated for 3 days with either BMP7 or 100 nM OX, at which time they were confluent. Cells were then incubated in adipogenic medium containing 0.125 mM indomethaein, […] dexamethazone, and […] 3-isobutyl-1-methyxanthine (IBMX) supplemented by 20 nM insulin as described by Tseng et al., (Nature, 454: 1000-1004, 2008) which is hereby incorporated by reference in its entirety."}, "[2]": {"system": "wild-type C57BL6 mice fed a high fat diet", "assay": "High fat diet six weeks with OX once per day, body weight and NMR body composition (Example 11)", "type": "in vivo", "conditions": "HFD six weeks", "procedure": "To confirm these findings and investigate the role for OX in energy metabolism and to prevent obesity, wild-type C57BL6 mice were fed a high fat diet (HFD) for six weeks. During this period, half of the mice received OX intraperitoneally once per day, while the other half was injected with saline. Food intake and body weight of both groups were monitored weekly. OX-treated mice ate more, resisted weight gain, were visibly lean, and accumulated less fat. […] Fat and lean mass were determined by subjecting mice to nuclear magnetic resonance (NMR) (Bruker, The Woodlands, Tex., United States) following a four-hour fast. OX therapy had no impact on either the lean mass or total fluid content. FIG. 27 illustrates these findings. Weekly energy intake, cumulative energy consumed, body weight gain over six weeks, and differences in body size between the two groups of mice are depicted."}, "[3]": {"system": "WtB6 mice fed a high fat diet", "assay": "High fat diet six weeks with two weekly OX injections, obesity resistance (Example 12)", "type": "in vivo", "excerpt": "To confirm that OX prevents obesity under conditions of caloric excess, a high fat diet (HFD) was fed to WtB6 mice for six weeks. Mice received two weekly OX or PBS injections (n=6/group). Food intake and body weight of both groups were monitored weekly. […] OX-injected animals, however, resisted weight gain, which became apparent during the second wk of therapy (FIG. 28B). At the conclusion of the treatment period, OX-treated mice were visibly lean (FIG. 28C, D) and weighed 7 g±1.2 g less than the control group (FIG. 28B, Table 3). […] Total visceral fat was reduced by more than 60%. Visceral fat in the OX-injected group was noticeably darker in color relative to control tissue (FIG. 28E, F).\nFurther, the respiratory quotient of OX-injected group was 10% lower than the vehicle injected group, indicating higher fat oxidation capacity (FIG. 28J). […] To determine whether systemic OX injection induces BAT activity, mice with OX (10 mg/kg) or PBS were compared, using relative UCP-1 expression as an indicator for BAT activity 24-hours post-injection."}, "[4]": {"conditions": "cited from earlier work"}, "[5]": {"conditions": "HFD six weeks, two weekly injections"}}, "note": "Values joined by “and” are separate entries in the source; they are usually repeats but may differ in a detail not shown here. Equal entries are not always repeated.", "data": [{"substance": "orexin-A (EPLPDCCRQKTCSCRLYELLHGAGNHAAGILTL) [OX, human orexin A, cat; No. 24470, Anaspec]", "values": [{"measurement": "oxygen consumption, higher", "setting": "C3H10T1/2 cells; basal conditions", "value": 15, "unit": "fold"}, {"measurement": "oxygen consumption of treated cells in the presence of oligomycin", "setting": "C3H10T1/2 cells; oligomycin", "value": "efficiently consumed oxygen"}, {"measurement": "share of OX-induced respiration uncoupled from ATP synthesis", "setting": "C3H10T1/2 cells; oligomycin-insensitive respiration", "value": "More than half"}, {"measurement": "differentiation of wild-type preadipocytes based on lipid accumulation", "setting": "[1]; 3 days BMP7 or 100 nM OX, then adipogenic medium", "value": "enhanced differentiation"}, {"measurement": "adipogenesis of iBAT preadipocytes from 1-day-old mice", "setting": "[1]; differentiated in the presence of OX", "value": "robust adipogenesis within 7 days"}, {"measurement": "differentiation of brown preadipocytes from OXR1-null mice", "setting": "[1]; in the presence of OX", "value": "little differentiation capacity"}, {"measurement": "abdominal obesity of control mice relative to OX-treated mice", "setting": "[2]; OX i.p. once per day", "value": 3.5, "unit": "times"}, {"measurement": "body fat accumulated by control mice relative to OX-treated mice", "setting": "[2]; OX i.p. once per day", "value": "twice as much body fat"}, {"measurement": "control mice heavier than OX-treated mice", "setting": "[2]; OX i.p. once per day", "value": "approximately 35%"}, {"measurement": "impact on lean mass or total fluid content", "setting": "[2]; OX i.p. once per day", "value": "no impact"}, {"measurement": "% body fat", "setting": "[2]; NMR, n=4", "value": "15 ± 1.1", "unit": "%"}, {"measurement": "Fat mass", "setting": "[2]; NMR, n=4", "value": "3.4 ± 0.4"}, {"measurement": "Fluid content", "setting": "[2]; NMR, n=4", "value": "7.7 ± 1.5"}, {"measurement": "Lean mass", "setting": "[2]; NMR, n=4", "value": "18.7 ± 1.1"}, {"measurement": "Lean mass-fat mass ratio", "setting": "[2]; NMR, n=4", "value": "5.5 ± 0.3"}, {"measurement": "% body fat", "setting": "[3]; [5]", "value": "15% and 15 ± 1.1%"}, {"measurement": "Fat mass", "setting": "[3]; [5]", "value": "3.4 ± 0.4"}, {"measurement": "Fluid content", "setting": "[3]; [5]", "value": "7.7 ± 1.5"}, {"measurement": "Lean mass", "setting": "[3]; [5]", "value": "18.7 ± 1.1"}, {"measurement": "Lean mass-fat mass ratio", "setting": "[3]; [5]", "value": "5.5 ± 0.3"}, {"measurement": "iBAT UCP1 expression", "setting": "[3]; OX 10 mg/kg, 24-hours post-injection", "value": "higher UCP1 levels than controls"}, {"measurement": "body weight less than the control group", "setting": "[3]; at the conclusion of the treatment period", "value": 7, "unit": "g"}, {"measurement": "oxygen consumed, more than the control group", "setting": "[3]; calorimetric measurements", "value": 15, "unit": "%"}, {"measurement": "respiratory quotient, lower than the vehicle injected group", "setting": "[3]; calorimetric measurements", "value": 10, "unit": "%"}, {"measurement": "reduction of total visceral fat", "setting": "[3]; end of the study", "value": "more than 60%"}, {"measurement": "reduction of whole body fat mass", "setting": "[3]; end of the study", "value": 50, "unit": "%"}, {"measurement": "physical activity", "setting": "[3]; infrared monitoring, two weeks", "value": "not more physically active"}, {"measurement": "increase in twenty-four hour energy expenditure", "setting": "[3]; relative to control mice", "value": 19, "unit": "%"}, {"measurement": "cumulative food intake over the 6-week period", "setting": "[3]; versus vehicle", "value": "not significantly different"}, {"measurement": "food intake during the first week", "setting": "[3]; versus vehicle", "value": "ate significantly more"}, {"measurement": "lean mass or fluid content", "setting": "[3]; versus vehicle", "value": "not significantly different"}, {"measurement": "blood-brain barrier permeation", "setting": "[4]; in contrast with orexin-B", "value": "blood-brain barrier permeant"}, {"measurement": "liposolubility", "setting": "[4]; versus orexin-B", "value": "higher liposolubility than orexin-B"}, {"measurement": "stability", "setting": "[4]; versus orexin-B", "value": "much more stable than Orexin-B"}]}]}
